Experimental data: ChEMBL document CHEMBL3046676, “Baseline susceptibility of Bemisia tabaci (Genn.) biotype B in southern Florida to cyantraniliprole” (2013)

Columns and labels:
Assay type in all cases: functional
[1] = system: Bemisia tabaci; experiment: Insecticidal activity against field-collected population of Bemisia tabaci (sweet potato whitefly) biotype B Homestead #1 (F4) eggs in cotton seedlings cut stem assessed as mortality measured after 14 days by stabilization treatment based systemic uptake bioassay
[2] = system: Bemisia tabaci; experiment: Insecticidal activity against field-collected population of Bemisia tabaci (sweet potato whitefly) biotype B GCC-AM (p) (F2) adults infested in cotton seedlings cut stem assessed as mortality measured after 5 days by stabilization treatment based systemic uptake bioassay
[3] = system: Bemisia tabaci; experiment: Insecticidal activity against field-collected population of Bemisia tabaci (sweet potato whitefly) biotype B GCC-AM ST (F4-5) adults infested in cotton seedlings cut stem assessed as mortality measured after 5 days by stabilization treatment based systemic uptake bioassay
[4] = system: Bemisia tabaci; experiment: Insecticidal activity against field-collected population of Bemisia tabaci (sweet potato whitefly) biotype B Parrish (F3) eggs in cotton seedlings cut stem assessed as mortality measured after 14 days by stabilization treatment based systemic uptake bioassay
[5] = system: Bemisia tabaci; experiment: Insecticidal activity against laboratory strain of Bemisia tabaci (sweet potato whitefly) biotype B adults infested in cotton seedlings cut stem assessed as mortality measured after 5 days by stabilization treatment based systemic uptake bioassay
[6] = system: Bemisia tabaci; experiment: Insecticidal activity against field-collected population of Bemisia tabaci (sweet potato whitefly) biotype B Homestead #1 (F2-F3) eggs in cotton seedlings cut stem assessed as mortality measured after 14 days by stabilization treatment based systemic uptake bioassay
[7] = system: Bemisia tabaci; experiment: Resistance ratio of LC50 for field-collected population of Bemisia tabaci (sweet potato whitefly) biotype B GCC-AM ST (F4-5) adults to LC50 for laboratory strain of Bemisia tabaci (sweet potato whitefly) biotype B adults
[8] = system: Bemisia tabaci; experiment: Resistance ratio of LC50 for field-collected population of Bemisia tabaci (sweet potato whitefly) biotype B Cortez #1 (F4) adults to LC50 for laboratory strain of Bemisia tabaci (sweet potato whitefly) biotype B adults
[9] = system: Bemisia tabaci; experiment: Insecticidal activity against field-collected population of Bemisia tabaci (sweet potato whitefly) biotype B Devil's garden KAC (F3) eggs in cotton seedlings cut stem assessed as mortality measured after 14 days by stabilization treatment based systemic uptake bioassay
[10] = system: Bemisia tabaci; experiment: Resistance ratio of LC50 for field-collected population of Bemisia tabaci (sweet potato whitefly) biotype B GCC-AM (p) (F2) adults to LC50 for laboratory strain of Bemisia tabaci (sweet potato whitefly) biotype B adults
[11] = system: Bemisia tabaci; experiment: Insecticidal activity against field-collected population of Bemisia tabaci (sweet potato whitefly) biotype B Cortez #1 (F4) adults infested in cotton seedlings cut stem assessed as mortality measured after 5 days by stabilization treatment based systemic uptake bioassay
[12] = system: Bemisia tabaci; experiment: Insecticidal activity against field-collected population of Bemisia tabaci (sweet potato whitefly) biotype B GCC-EV-Tom (F4) eggs in cotton seedlings cut stem assessed as mortality measured after 14 days by stabilization treatment based systemic uptake bioassay
[13] = system: Bemisia tabaci; experiment: Insecticidal activity against field-collected population of Bemisia tabaci (sweet potato whitefly) biotype B Myakka (F2) eggs in cotton seedlings cut stem assessed as mortality measured after 14 days by stabilization treatment based systemic uptake bioassay

Compound: CNC(=O)c1cc(C#N)cc(C)c1NC(=O)c1cc(Br)nn1-c1ncccc1Cl [CYANTRANILIPROLE]
- LC50 [1]: 0.023 mgAi/L
- LC50 [2]: 0.059 mgAi/L
- LC50 [3]: 0.037 mgAi/L
- LC50 [4]: 0.015 mgAi/L
- LC50 [5]: 0.049 mgAi/L
- LC50 [6]: 0.013 mgAi/L
- RatioLC50 [7]: 0.752
- RatioLC50 [8]: 1.174
- LC50 [9]: 0.033 mgAi/L
- RatioLC50 [10]: 1.207
- LC50 [11]: 0.058 mgAi/L
- LC50 [12]: 0.034 mgAi/L
- LC50 [13]: 0.023 mgAi/L
